Assay results as given in ChEMBL document CHEMBL1201862, “PubChem BioAssay data set” (2004).
Active and inactive are the calls of the source.

How the values were obtained:
[1] = cells; assay type: functional, cell-based
[2] = cells; assay type: functional, cell-based; remark: listed apart in the source
[3] = biological target: Cytochrome P450 2C19 (Homo sapiens, UniProt P33261); test: Cytochrome panel assay with activity outcomes. Panel member name: p450-cyp2c19 Compounds with AC50 equal or less than 10 uM are considered active; assay type: functional; settings: read-out: AC50
Chain of Cytochrome P450 2C19 (P33261 whole entry): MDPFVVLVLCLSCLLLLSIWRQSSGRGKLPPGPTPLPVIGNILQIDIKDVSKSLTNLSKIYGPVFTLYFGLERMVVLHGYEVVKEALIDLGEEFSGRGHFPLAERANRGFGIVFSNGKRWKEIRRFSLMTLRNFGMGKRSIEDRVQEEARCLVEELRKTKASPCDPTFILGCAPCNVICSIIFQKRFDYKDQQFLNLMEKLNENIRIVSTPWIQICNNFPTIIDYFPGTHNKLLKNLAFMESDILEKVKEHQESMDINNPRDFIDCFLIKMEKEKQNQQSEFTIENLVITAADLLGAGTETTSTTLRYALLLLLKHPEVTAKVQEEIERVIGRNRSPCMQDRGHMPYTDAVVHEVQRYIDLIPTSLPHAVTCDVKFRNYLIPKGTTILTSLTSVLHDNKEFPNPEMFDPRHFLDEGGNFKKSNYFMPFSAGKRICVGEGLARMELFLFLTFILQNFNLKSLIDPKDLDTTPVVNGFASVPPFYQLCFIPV

[4] = biological target: Cytochrome P450 2D6 (Homo sapiens, UniProt P10635);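 also: CYP2D6 member of a cytochrome P450 panel assay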
Chain of Cytochrome P450 2D6 (P10635 whole entry): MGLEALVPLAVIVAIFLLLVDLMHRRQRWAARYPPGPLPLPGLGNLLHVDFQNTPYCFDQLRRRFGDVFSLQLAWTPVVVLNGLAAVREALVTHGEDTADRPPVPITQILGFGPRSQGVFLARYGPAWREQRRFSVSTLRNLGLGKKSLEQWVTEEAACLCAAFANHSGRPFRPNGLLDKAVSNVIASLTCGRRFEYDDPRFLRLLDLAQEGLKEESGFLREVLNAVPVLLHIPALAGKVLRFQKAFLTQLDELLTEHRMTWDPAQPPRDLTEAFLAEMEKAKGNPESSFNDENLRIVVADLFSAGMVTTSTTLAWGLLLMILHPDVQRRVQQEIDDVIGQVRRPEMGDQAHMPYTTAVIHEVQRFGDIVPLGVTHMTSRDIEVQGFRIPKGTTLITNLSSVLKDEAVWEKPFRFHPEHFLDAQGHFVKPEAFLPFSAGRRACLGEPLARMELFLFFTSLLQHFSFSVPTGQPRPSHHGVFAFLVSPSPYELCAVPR

[5] = biological target: T1, Protein RecA (Mycobacterium tuberculosis, UniProt P9WHJ3); test: Fluorescence Cell-Free Homogeneous Dose Retest to Identify Inhibitors of RecA-Intein Splicing Activity. [Related pubchem assays (depositor defined):AID2097, AID2223, AID489010, AID492950]; assay type: functional
T1 sequence (P9WHJ3 whole entry): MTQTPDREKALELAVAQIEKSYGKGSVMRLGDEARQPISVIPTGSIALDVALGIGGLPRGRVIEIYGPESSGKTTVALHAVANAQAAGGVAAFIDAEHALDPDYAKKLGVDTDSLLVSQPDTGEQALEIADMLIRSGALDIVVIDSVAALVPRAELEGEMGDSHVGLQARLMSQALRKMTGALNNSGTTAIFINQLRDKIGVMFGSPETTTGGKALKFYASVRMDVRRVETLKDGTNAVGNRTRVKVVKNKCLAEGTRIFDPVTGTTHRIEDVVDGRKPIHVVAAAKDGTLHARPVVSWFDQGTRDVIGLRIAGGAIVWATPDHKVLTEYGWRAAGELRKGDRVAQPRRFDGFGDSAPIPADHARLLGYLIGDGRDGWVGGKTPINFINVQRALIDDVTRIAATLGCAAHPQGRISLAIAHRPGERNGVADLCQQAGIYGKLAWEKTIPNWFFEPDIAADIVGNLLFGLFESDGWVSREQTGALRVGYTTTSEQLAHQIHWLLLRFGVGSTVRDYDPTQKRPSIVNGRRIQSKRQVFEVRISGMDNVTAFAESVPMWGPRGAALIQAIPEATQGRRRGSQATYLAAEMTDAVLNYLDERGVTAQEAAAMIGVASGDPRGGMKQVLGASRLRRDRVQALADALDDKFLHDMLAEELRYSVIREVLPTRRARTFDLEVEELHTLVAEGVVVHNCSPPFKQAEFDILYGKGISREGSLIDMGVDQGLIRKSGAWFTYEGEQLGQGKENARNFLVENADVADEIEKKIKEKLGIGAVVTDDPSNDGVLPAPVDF

[6] = biological target: T2, Replicative DNA helicase DnaB (Mycobacterium tuberculosis, UniProt P9WMR3); test: DnaB intein splicing inhibitors, dose response, biochemical, cell-free fluorescence (AID 449749); assay type: functional
T2 sequence (P9WMR3 whole entry): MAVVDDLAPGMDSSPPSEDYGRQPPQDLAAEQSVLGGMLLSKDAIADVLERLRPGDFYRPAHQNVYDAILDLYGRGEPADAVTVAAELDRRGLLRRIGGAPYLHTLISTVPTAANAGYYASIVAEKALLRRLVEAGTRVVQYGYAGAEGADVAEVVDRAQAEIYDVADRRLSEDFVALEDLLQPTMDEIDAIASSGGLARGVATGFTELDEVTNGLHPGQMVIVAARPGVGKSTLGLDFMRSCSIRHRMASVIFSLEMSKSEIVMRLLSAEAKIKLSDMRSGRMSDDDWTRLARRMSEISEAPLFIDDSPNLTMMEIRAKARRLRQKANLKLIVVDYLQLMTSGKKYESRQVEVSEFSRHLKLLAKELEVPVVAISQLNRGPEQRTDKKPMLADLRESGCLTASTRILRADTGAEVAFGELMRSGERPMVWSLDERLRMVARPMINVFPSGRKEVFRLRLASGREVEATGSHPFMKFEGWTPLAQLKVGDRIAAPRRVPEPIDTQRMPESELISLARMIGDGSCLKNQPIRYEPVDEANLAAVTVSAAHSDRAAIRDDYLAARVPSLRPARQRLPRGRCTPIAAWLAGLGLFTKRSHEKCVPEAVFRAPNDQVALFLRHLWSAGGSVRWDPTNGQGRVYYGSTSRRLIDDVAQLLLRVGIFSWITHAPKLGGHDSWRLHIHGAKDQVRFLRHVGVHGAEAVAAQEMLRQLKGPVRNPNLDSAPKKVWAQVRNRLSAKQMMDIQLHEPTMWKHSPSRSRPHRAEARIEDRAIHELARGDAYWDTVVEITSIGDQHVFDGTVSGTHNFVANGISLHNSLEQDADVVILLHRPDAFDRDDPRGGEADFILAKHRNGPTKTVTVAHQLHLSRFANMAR

[7] = biological target: Cytochrome P450 2C9 (Homo sapiens, UniProt P11712)
Chain of Cytochrome P450 2C9 (P11712 whole entry): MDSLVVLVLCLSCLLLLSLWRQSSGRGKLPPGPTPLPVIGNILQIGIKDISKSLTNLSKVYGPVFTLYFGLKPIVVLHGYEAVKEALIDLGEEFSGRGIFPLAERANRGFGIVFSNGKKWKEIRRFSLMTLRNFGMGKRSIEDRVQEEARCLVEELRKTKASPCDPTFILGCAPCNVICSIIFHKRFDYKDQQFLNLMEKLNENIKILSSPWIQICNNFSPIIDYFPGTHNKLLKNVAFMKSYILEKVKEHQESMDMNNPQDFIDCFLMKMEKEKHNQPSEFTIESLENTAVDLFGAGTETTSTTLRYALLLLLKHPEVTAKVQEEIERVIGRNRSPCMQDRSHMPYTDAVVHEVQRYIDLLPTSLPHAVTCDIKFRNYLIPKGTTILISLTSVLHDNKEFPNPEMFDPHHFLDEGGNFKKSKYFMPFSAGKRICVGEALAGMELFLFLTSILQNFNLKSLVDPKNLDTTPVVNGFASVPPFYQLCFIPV

[8] = Luminescence Cell-Based Dose Response HTS to Identify Activators of Luciferase Translation or Activity in H4 […] Cells. [Related pubchem assays: 1829 (Project Summary), 1814 (Primary HTS)]; assay type: functional
[9] = biological target: T3, Cytochrome P450 1A2 (Homo sapiens, UniProt P05177);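 also: PubChem cytochrome P450 panel assay, CYP1A2 panel member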
T3 sequence (P05177 whole entry): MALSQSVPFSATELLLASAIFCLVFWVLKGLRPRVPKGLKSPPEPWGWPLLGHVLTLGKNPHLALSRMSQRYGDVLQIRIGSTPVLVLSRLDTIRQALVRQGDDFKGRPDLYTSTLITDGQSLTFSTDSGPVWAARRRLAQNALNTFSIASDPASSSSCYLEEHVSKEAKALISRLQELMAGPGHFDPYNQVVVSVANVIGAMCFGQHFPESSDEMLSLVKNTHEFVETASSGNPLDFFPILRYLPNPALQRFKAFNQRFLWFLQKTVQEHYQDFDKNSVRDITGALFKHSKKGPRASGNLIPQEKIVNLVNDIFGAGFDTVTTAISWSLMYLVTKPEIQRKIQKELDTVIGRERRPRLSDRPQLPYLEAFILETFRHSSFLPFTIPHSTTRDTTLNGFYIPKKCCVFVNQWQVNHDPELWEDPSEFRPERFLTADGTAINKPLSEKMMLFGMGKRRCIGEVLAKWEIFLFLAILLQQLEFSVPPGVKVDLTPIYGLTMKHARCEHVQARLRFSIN

[10] = biological target: Cytochrome P450 3A4 (Homo sapiens, UniProt P08684);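 also: CYP3A4 tested as one member of a cytochrome P450 panel screen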
Chain of Cytochrome P450 3A4 (P08684 whole entry): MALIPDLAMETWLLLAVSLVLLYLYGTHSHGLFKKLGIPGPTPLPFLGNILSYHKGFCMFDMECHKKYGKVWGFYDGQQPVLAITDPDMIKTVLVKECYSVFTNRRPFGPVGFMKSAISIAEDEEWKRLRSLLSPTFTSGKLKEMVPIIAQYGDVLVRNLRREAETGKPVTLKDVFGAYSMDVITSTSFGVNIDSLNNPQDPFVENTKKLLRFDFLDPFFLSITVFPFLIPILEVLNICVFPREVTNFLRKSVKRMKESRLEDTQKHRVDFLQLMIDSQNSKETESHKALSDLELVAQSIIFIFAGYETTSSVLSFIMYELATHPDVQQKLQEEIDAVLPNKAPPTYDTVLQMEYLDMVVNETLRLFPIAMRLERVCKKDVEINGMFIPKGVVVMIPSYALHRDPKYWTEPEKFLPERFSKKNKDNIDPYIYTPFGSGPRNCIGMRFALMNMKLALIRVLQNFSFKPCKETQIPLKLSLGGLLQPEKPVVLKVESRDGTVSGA

[11] = growth suppression of PTEN-null colon cells, dose response, cell-based, HCT116 PTEN knockout (AID 1047); assay type: functional;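 also: HCT116 colon tumor cells with PTEN knocked out; cells exposed to compound for 60 hours before readout; potency for loss of cell viability measured by luminescence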
[12] = HEp-2 cell cytotoxicity, dose response, cytotoxicity control for RSV inhibitor project, HTS (AID 2410); assay type: functional; settings: human respiratory syncytial virus
[13] = test system: SN12K1; test: cells; assay type: functional; settings: Homo sapiens
[14] = test system: P388; test: cells; assay type: functional; settings: Mus musculus
[15] = test system: P388/ADR; test: cells; assay type: functional; settings: Mus musculus

Compound | AC50 [3] | GI50 [13] | GI50 [14] | GI50 [15] | other results
Cc1ccc(-c2csc3nc(SCC(=O)N(C)C)n(Cc4ccccc4)c(=O)c23)cc1 | – | – | – | – | EC50 [1]: > 350 µM (not active); EC50 [2]: > 350 µM (not active)
NCCSCCc1ccccc1 | 3.16 µM (inconclusive) | – | – | – | AC50 [4]: 3.16 µM (inconclusive)
CC(=O)Nc1cccc(OC(=O)COc2ccc(Br)cc2)c1 | – | – | – | – | EC50 [5]: 20.6 µM (active); AC50 [6]: 11 µM (active)
COc1ccc(CC(NC(C)=O)C(=O)NC2CCN(C(=O)Nc3ccc(Cl)cc3)CC2)cc1OC (stereo not drawn) | – | – | – | – | EC50 [1]: > 350 µM (not active); AC50 [7]: 12.6 µM (inconclusive); EC50 [2]: > 350 µM (not active)
CCc1ccc(-c2ccc(C(=O)C(F)(F)F)[nH]2)cc1 | 5.01 µM (inconclusive) | – | – | – | EC50 [8]: 0.19 µM (active)
COc1cc2c(cc1OC)-c1c/c(=N/c3c(C)cc(C)cc3C)n(C)c(=O)n1CC2 | 31.6 µM (inconclusive) | – | – | – | AC50 [4]: 31.6 µM (inconclusive)
COc1cccc(Cn2c(=O)c(-c3ccccc3)nc3cnc(N4CCNCC4)nc32)c1 | 39.8 µM (inconclusive) | – | – | – | AC50 [9]: 3.16 µM (inconclusive); AC50 [4]: 10 µM (inconclusive)
CCOC(=O)N1CCC2(CC1)C(C#N)=C(N)Oc1[nH]nc(C)c12 | – | – | – | – | EC50 [5]: 1.43 µM (active); AC50 [6]: 8.2 µM (active)
COc1ccc(C(=O)Nc2ccc(C(=O)NCCc3ccc(OC)c(OC)c3)cc2)cc1 | – | – | – | – | EC50 [1]: > 350 µM (not active); EC50 [2]: > 350 µM (not active)
Cc1ccc(C(=O)C2C(=O)c3ccccc3C2=O)cc1 | 22.4 µM (inconclusive) | – | – | – | AC50 [9]: 25.1 µM (inconclusive)
CS(=O)(=O)Nc1cccc(-c2cc(NCc3ccccc3)ncn2)c1 | 39.8 µM (inconclusive) | – | – | – | AC50 [4]: 31.6 µM (inconclusive)
CN1C(=O)C(=C(N)COc2ccccc2)C(=O)N(C)C1=O | 15.8 µM (inconclusive) | – | – | – | AC50 [7]: 14.1 µM (inconclusive)
CCN(CCN(C)C)C(=O)C1CCN(S(=O)(=O)c2c(C)noc2/C=C/c2ccccc2F)CC1 | – | – | – | – | EC50 [1]: > 350 µM (not active); EC50 [2]: 21.2 µM (active)
c1ccc(-c2csc3ncn4cnnc4c23)cc1 | 11.2 µM (inconclusive) | – | – | – | AC50 [7]: 20 µM (inconclusive); AC50 [9]: 0.251 µM (inconclusive)
Cc1ccc(-n2c(SCC(=O)N3CCOCC3)nnc2-c2cccnc2)cc1 | 22.4 µM (inconclusive) | – | – | – | AC50 [7]: 17.8 µM (inconclusive); AC50 [10]: 10 µM (inconclusive); AC50 [9]: 10 µM (inconclusive)
Cn1c(=O)c(CCc2ccccc2)nc2cncnc21 | 39.8 µM (inconclusive) | – | – | – | AC50 [7]: 31.6 µM (inconclusive); AC50 [10]: 15.8 µM (inconclusive)
CCN(CC)C(=O)CCCOc1ccc(Cl)cc1Cl | – | – | – | – | EC50 [11]: 137 µM (active); CC50 [12]: 22.1 µM (active)
COc1cccc(C2=NOC(C(=O)NCc3ccccn3)C2)c1 (stereo not drawn) | 25.1 µM (inconclusive) | – | – | – | AC50 [10]: 15.8 µM (inconclusive)

Compound | AC50 [3] | GI50 [13] | GI50 [14] | GI50 [15] | other results
Cc1ccc(Oc2nc(-c3ccccc3)ncc2S(C)(=O)=O)cc1 | 3.16 µM (inconclusive) | – | – | – | AC50 [10]: 14.1 µM (inconclusive)
Nc1ccc2[nH]ncc2c1 | – | – | – | – | EC50 [5]: 36.1 µM (active); AC50 [6]: 324 µM (active)
O=c1ccn([C@@H]2C=C(CO)[C@@H](O)[C@H]2O)c(=O)[nH]1 | – | > 625 µM (inactive) | > 625 µM (inactive) | – | –
COc1ccc(C2COc3cc(OC(C)=O)c(OC(C)=O)cc3C2)cc1 (stereo not drawn) | – | 13.9 µM (inactive) | 3.08 µM (inactive) | 2.87 µM (inactive) | –
Nc1nccc2c1ncn2C1C=C(CO)C(O)C1O (stereo not drawn) | – | 0.811 µM (active) | 0.0982 µM (active) | 0.051 µM (active) | –
CCCN1C(=O)/C(=C(/O)C(=O)OCC)C(c2ccc(OC)c(OC)c2)C1=O (stereo not drawn) | – | > 100 µM (inactive) | > 100 µM (inactive) | > 100 µM (inactive) | –
CCN(CC)CCCC(C)Nc1c2ccc(Cl)cc2nc2cc(Cl)ccc12 (stereo not drawn) | – | 2.81 µM (inactive) | 1.87 µM (inactive) | 1.71 µM (inactive) | –
CCCCCC/C=C1\CCC(CN(C)C)C1=O (stereo not drawn) | – | 2.17 µM (inactive) | 1.08 µM (active) | 0.673 µM (active) | –
COc1cccc2c1C(=O)c1c(O)c3c(c(O)c1C2=O)C[C@@](O)(C(=O)CN1CCOCC1)C[C@@H]3OC1CC(N)C(O)C(C)O1 (stereo partly drawn) | – | 0.649 µM (active) | 0.361 µM (active) | 14.7 µM (inactive) | –
O=C1C2=C(C3=NCCc4c[nH]c1c43)c1c(cc(Br)c(O)c1Br)CCN2 | – | 6.97 µM (inactive) | 3.37 µM (inactive) | 10.2 µM (inactive) | –
CCOC(=O)CN(CC)C(=O)NC12CC3CC(CC(C3)C1)C2 | – | 188 µM (inactive) | 175 µM (inactive) | 120 µM (inactive) | –
CC1=NCCc2cc3[nH]c4ccccc4c3cc21 | – | 14.6 µM (inactive) | 6.73 µM (inactive) | 9.04 µM (inactive) | –
C=C1C(=O)[C@@]23CC[C@H]4[C@@](C)(CCC[C@@]4(C)C(=O)OC)[C@@H]2CC[C@]1(O)C3 | – | 1.45 µM (inactive) | 0.153 µM (active) | 0.0483 µM (active) | –
C/C=C1\C[C@@H]2C(OC)Nc3cc(O)c(OC)cc3C(=O)N2C1 (stereo partly drawn) | – | 0.01 µM (active) | 0.01 µM (active) | 0.01 µM (active) | –
CCOc1cc(/C=N/NC(=O)c2cccnc2)ccc1OCc1ccc(C(=O)OC)o1 | – | – | – | – | EC50 [1]: > 350 µM (not active); EC50 [2]: > 350 µM (not active)
Nc1ccc2cn[nH]c2c1 | – | – | – | – | EC50 [5]: 9.02 µM (active); AC50 [6]: 4.45 µM (active)
COc1cc([C@@H]2c3cc4c(c(O)c3C[C@H]3COC(=O)[C@@H]32)OCO4)cc(OC)c1O | – | 0.0208 µM (active) | 0.0261 µM (active) | 0.02 µM (active) | –
